Tests used:
[1] = tested on: patient with small intestine/large intestine type Crohn's disease; experiment: Clinical case: repeated administration of Infliximab under enteral administration of ELENTAL, Crohn's disease activity index (CDAI) and ulcer findings; format: in vivo, human; details: for CDAI two weeks later: ELENTAL continued
Method: A patient is a person, and they are the patient with small intestine/large intestine type Crohn's disease that began. By August 2002, Crohn's disease repeatedly recurred and they were hospitalized three times.
In July 2002, since Crohn's disease recurred again accompanied by stomachache, diarrhea and fever, 5 mg/kg of Infliximab (REMICADE® (trademark) 100 for drip infusion) under the enteral administration of 1200 kcal of ELENTAL® (trademark) was administered to the patient. The clinical activity index of Crohn's disease before the administration was 186 (150 or higher fall into the active stage). However, the index was lowered to 67 two weeks after the administration. During the period, an open longitudinal ulcer(s) seen in the transverse colon and sigmoid colon was cicatrized. After that, thought the patient was treated with the home enteral nutritional therapy, the symptoms recurred in February 2003 and CDAI increased up to 230. Continuing the enteral administration of ELENTAL® (trademark), Infliximab (5 mg/kg) was administered for the second time. Then, CDAI was lowered again to 63 two weeks later. […] Therefore, Infliximab (5 mg/kg) was administered for the third time, and CDAI was lowered to 80 two weeks later. Before and after the administration for the third time, it was confirmed that an open ulcer(s) of the sigmoid colon was cicatrized. Similarly, though CDAI increased in the 50th week, 68th week and 83rd week from the first administration, CDAI of 147 to 275 decreased to 50 to 80 […] by the fourth, fifth and sixth time administrations of Infliximab. During that time, administration of ELENTAL was continued.
Usually, the repeated administration of Infliximab promotes production of antibody and, therefore, its effect weakens in the repeated administration.

[2] = tested on: patient with small intestine/large intestine type Crohn's disease

With Infliximab the “CDAI at recurrence of symptoms” value ([1]; February 2003, after first Infliximab administration, under home enteral nutritional therapy, before second administration) was 230, the “open ulcer(s) of the sigmoid colon” value ([1]; before and after the third administration of Infliximab 5 mg/kg under ELENTAL) was “cicatrized” and the “open longitudinal ulcer(s) in the transverse colon and sigmoid colon” value ([1]; during the two weeks after first administration of Infliximab 5 mg/kg under ELENTAL) was “cicatrized”. The “clinical activity index of Crohn's disease (CDAI) two weeks after the administration” value ([1]; first administration, Infliximab 5 mg/kg drip infusion under enteral ELENTAL 1200 kcal, index before administration 186 (150 or higher = active stage)) was 67, the “CDAI two weeks later” value ([1]; second administration of Infliximab 5 mg/kg, CDAI before 230) was 63 and the “CDAI two weeks later” value ([1]; third administration of Infliximab 5 mg/kg, CDAI before 250) was 80. The “CDAI increase under administration of ELENTAL” value ([1]; two months after second administration, before third administration) was 250, the tuberculosis bacterium infection ([2]; first to sixth administration of Infliximab with ELENTAL) was “not seen” and the “infection in organs of respiration or in a urinary tract” value ([2]; human, in vivo) was “no finding of indication of infection”.

— patent publication US7871631B2, “Methods of inhibiting the lowering of antihuman TNF-α antibody” (Ajinomoto Co., Inc., priority 2004, dated 2011)
